Results from patent publication US20240368163A1, “COMPOUNDS AND METHODS FOR MODULATING SPLICING” (REMIX THERAPEUTICS INC., priority 2021, published 2024).

Tests used:
Assay type in all cases: cell-based, human
Target C [1] = test: Splicing RT-qPCR panel, Target C canonical junction (CJ) mRNA; settings: Homo sapiens, RT-qPCR panel, canonical junction mRNA; compound concentration having 50% response in CJ decrease; read-out: Target C IC50 (decrease in CJ mRNA levels)
Summary of the method: (§1)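 First, A673 cells adhered 24 h, while K562 cells were plated directly. Next, compounds were added as an 11-point 3-fold series from 10 uM for 24 h. Finally, lysates went to RT-qPCR, with 2^(−ΔΔCt) values converted to percentage response.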

MYB [2] = test: HiBiT protein abundance assay, MYB; settings: Homo sapiens, K562, 24 h, Table 13A, modified K562 cells
Summary of the method: (§2)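 K562 cells with endogenous HiBiT-tagged target were treated 24 h at 37 °C with compound (10-point 3-fold dilution, top 10 μM final, DMSO ≤0.25%). Lytic LgBiT luminescence was normalized to unmodified K562 (baseline) and DMSO-treated tagged cells; IC50 interpolated at 50% from four-parameter logistic fit.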

SMN2 = test: Splicing RT-qPCR panel, SMN2 canonical junction (CJ) mRNA; settings: Homo sapiens, RT-qPCR panel, canonical junction mRNA; compound concentration having 50% response in CJ decrease; read-out: SMN2 IC50 (decrease in CJ mRNA levels)
Summary of the method: as §1

Target C [3] = test: HiBiT protein abundance assay, Target C; settings: Homo sapiens, K562, 24 h, Table 13A, modified K562 cells
Summary of the method: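 HiBiT knock-in K562-derived cells, 10000 cells/well, were treated 24 h at 37 °C with a 10-point 3-fold dilution series (top 10 μM final, DMSO ≤0.25%). Lytic HiBiT luminescence was normalized to unmodified K562 and DMSO controls; IC50 was interpolated at 50% from a four-parameter logistic fit.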

HTT [4] = test: HiBiT protein abundance assay, HTT; settings: Homo sapiens, K562, 24 h, Table 13A, modified K562 cells
Summary of the method: as §2

MYB [5] = test: Splicing RT-qPCR assay, MYB mRNA canonical junction (CJ) and alternative junction (AJ); settings: Homo sapiens; for AC50: increase in AJ mRNA
Summary of the method: as §1

HTT [6] = test: Splicing RT-qPCR assay, HTT mRNA canonical junction (CJ) and alternative junction (AJ); settings: Homo sapiens; for AC50: increase in AJ mRNA
Summary of the method: as §1

[7] = 24 h, decrease in CJ mRNA, A673 or K562 cells, 24 hours treatment, RT-qPCR, read-out: MYB CJ IC50
[8] = 24 h, A673 or K562 cells, 24 hours treatment, RT-qPCR
[9] = RT-qPCR panel, canonical junction mRNA, compound concentration having 50% response in CJ decrease, read-out: MYB IC50 (decrease in CJ mRNA levels)
[10] = 24 h, decrease in CJ mRNA, A673 or K562 cells, 24 hours treatment, RT-qPCR, read-out: HTT CJ IC50
[11] = RT-qPCR panel, canonical junction mRNA, compound concentration having 50% response in CJ decrease, read-out: HTT IC50 (decrease in CJ mRNA levels)

c1n[nH]cc1-c1ccc(-c2ccc(N3CCCC4(CNC4)C3)nn2)c2[nH]ncc12 [Compound 251]
IC50 (Target C [1]): > 10 µM
IC50 (MYB [2]): > 10 µM
IC50 (SMN2): > 10 µM
IC50 (Target C [3]): > 10 µM
IC50 (HTT [4]): > 10 µM
IC50 (MYB [5]; [7]): > 10 µM
AC50 (MYB [5]; [8]): > 10 µM
IC50 (MYB [5]; [9]): > 10 µM
IC50 (HTT [6]; [10]): > 10 µM
AC50 (HTT [6]; [8]): > 10 µM
IC50 (HTT [6]; [11]): > 10 µM

c1n[nH]cc1-c1ccc(-c2ccc(N3CCC4(CCCNC4)C3)nn2)c2[nH]ncc12 (stereo not shown) [Compound 252]
IC50 (Target C [1]): > 10 µM
IC50 (MYB [2]): 1 to 10 µM
IC50 (SMN2): 1 to 10 µM
IC50 (Target C [3]): > 10 µM
IC50 (HTT [4]): > 10 µM
IC50 (MYB [5]; [7]): > 10 µM
AC50 (MYB [5]; [8]): > 10 µM
IC50 (MYB [5]; [9]): > 10 µM
IC50 (HTT [6]; [10]): > 10 µM
AC50 (HTT [6]; [8]): > 10 µM
IC50 (HTT [6]; [11]): > 10 µM

c1n[nH]cc1-c1ccc(-c2ccc(N3CCCC4(CCNC4)C3)nn2)c2[nH]ncc12 (stereo not shown) [Compound 253]
IC50 (Target C [1]): > 10 µM
IC50 (MYB [2]): > 10 µM
IC50 (SMN2): > 10 µM
IC50 (Target C [3]): > 10 µM
IC50 (HTT [4]): > 10 µM
IC50 (MYB [5]; [7]): > 10 µM
AC50 (MYB [5]; [8]): > 10 µM
IC50 (MYB [5]; [9]): > 10 µM
IC50 (HTT [6]; [10]): > 10 µM
AC50 (HTT [6]; [8]): > 10 µM
IC50 (HTT [6]; [11]): > 10 µM

c1n[nH]cc1-c1ccc(-c2ccc(N3C[C@H]4CNC[C@H]4C3)nn2)c2[nH]ncc12 [Compound 254]
IC50 (Target C [1]): > 10 µM
IC50 (MYB [2]): > 10 µM
IC50 (SMN2): 0.1 to 1 µM
IC50 (Target C [3]): > 10 µM
IC50 (HTT [4]): > 10 µM
IC50 (MYB [5]; [7]): > 10 µM
AC50 (MYB [5]; [8]): 1 to 10 µM
IC50 (MYB [5]; [9]): > 10 µM
IC50 (HTT [6]; [10]): > 10 µM
AC50 (HTT [6]; [8]): > 10 µM
IC50 (HTT [6]; [11]): > 10 µM

CN1C[C@@H]2CN(c3ccc(-c4ccc(-c5cn[nH]c5)c5cn[nH]c45)nn3)C[C@@H]2C1 [Compound 255]
IC50 (Target C [1]): > 10 µM
IC50 (MYB [2]): 1 to 10 µM
IC50 (SMN2): 0.1 to 1 µM
IC50 (Target C [3]): > 10 µM
IC50 (HTT [4]): 1 to 10 µM
IC50 (MYB [5]; [7]): > 10 µM
AC50 (MYB [5]; [8]): 1 to 10 µM
IC50 (MYB [5]; [9]): > 10 µM
IC50 (HTT [6]; [10]): > 10 µM
AC50 (HTT [6]; [8]): > 10 µM
IC50 (HTT [6]; [11]): > 10 µM

c1n[nH]cc1-c1ccc(-c2ccc(NC3CCNCC3)nn2)c2[nH]ncc12 [Compound 263]
IC50 (Target C [1]): > 10 µM
IC50 (MYB [2]): > 10 µM
IC50 (SMN2): > 10 µM
IC50 (Target C [3]): > 10 µM
IC50 (HTT [4]): > 10 µM
IC50 (MYB [5]; [7]): > 10 µM
AC50 (MYB [5]; [8]): > 10 µM
IC50 (MYB [5]; [9]): > 10 µM
IC50 (HTT [6]; [10]): > 10 µM
AC50 (HTT [6]; [8]): > 10 µM
IC50 (HTT [6]; [11]): > 10 µM

CN(c1ccc(-c2ccc(-n3cccn3)c3cn[nH]c23)nn1)C1CCNCC1 [Compound 264]
IC50 (Target C [1]): > 10 µM
IC50 (MYB [2]): 1 to 10 µM
IC50 (SMN2): 1 to 10 µM
IC50 (Target C [3]): 1 to 10 µM
IC50 (HTT [4]): 1 to 10 µM
IC50 (MYB [5]; [7]): > 10 µM
AC50 (MYB [5]; [8]): > 10 µM
IC50 (MYB [5]; [9]): > 10 µM
IC50 (HTT [6]; [10]): > 10 µM
AC50 (HTT [6]; [8]): > 10 µM
IC50 (HTT [6]; [11]): > 10 µM

c1nc2c(-c3cn[nH]c3)ccc(-c3ccc(N4CCC5(CCN5)C4)nn3)c2s1 (stereo not shown) [Compound 265]
IC50 (Target C [1]): > 10 µM
IC50 (MYB [2]): > 10 µM
IC50 (SMN2): 0.1 to 1 µM
IC50 (Target C [3]): > 10 µM
IC50 (HTT [4]): > 10 µM
IC50 (MYB [5]; [7]): 1 to 10 µM
AC50 (MYB [5]; [8]): > 10 µM
IC50 (MYB [5]; [9]): 1 to 10 µM
IC50 (HTT [6]; [10]): > 10 µM
AC50 (HTT [6]; [8]): > 10 µM
IC50 (HTT [6]; [11]): > 10 µM

c1nc2c(-c3cn[nH]c3)ccc(-c3ccc(N4CCC45CCNCC5)nn3)c2s1 [Compound 266]
IC50 (Target C [1]): > 10 µM
IC50 (MYB [2]): 1 to 10 µM
IC50 (SMN2): > 10 µM
IC50 (Target C [3]): > 10 µM
IC50 (HTT [4]): 1 to 10 µM
IC50 (MYB [5]; [7]): 1 to 10 µM
AC50 (MYB [5]; [8]): > 10 µM
IC50 (MYB [5]; [9]): 1 to 10 µM
IC50 (HTT [6]; [10]): 1 to 10 µM
AC50 (HTT [6]; [8]): > 10 µM
IC50 (HTT [6]; [11]): 1 to 10 µM

[2H]C([2H])([2H])N(c1ccc(-c2ccc(-c3cn[nH]c3)c3cn[nH]c23)nn1)C1CCNCC1 [Compound 267]
IC50 (Target C [1]): > 10 µM
IC50 (MYB [2]): 1 to 10 µM
IC50 (SMN2): 1 to 10 µM
IC50 (Target C [3]): 1 to 10 µM
IC50 (HTT [4]): 1 to 10 µM
IC50 (MYB [5]; [7]): > 10 µM
AC50 (MYB [5]; [8]): > 10 µM
IC50 (MYB [5]; [9]): > 10 µM
IC50 (HTT [6]; [10]): > 10 µM
AC50 (HTT [6]; [8]): > 10 µM
IC50 (HTT [6]; [11]): > 10 µM

CN(c1ccc(-c2ccc(-c3cn[nH]c3)c3cn[nH]c23)nn1)C1CCNCC1 [Compound 273]
IC50 (Target C [1]): > 10 µM
IC50 (MYB [2]): 1 to 10 µM
IC50 (SMN2): 1 to 10 µM
IC50 (Target C [3]): 1 to 10 µM
IC50 (HTT [4]): > 10 µM
IC50 (MYB [5]; [7]): > 10 µM
AC50 (MYB [5]; [8]): > 10 µM
IC50 (MYB [5]; [9]): > 10 µM
IC50 (HTT [6]; [10]): > 10 µM
AC50 (HTT [6]; [8]): > 10 µM
IC50 (HTT [6]; [11]): > 10 µM

CCN(c1ccc(-c2ccc(-c3cn[nH]c3)c3cn[nH]c23)nn1)C1CCNCC1 [Compound 274]
IC50 (Target C [1]): > 10 µM
IC50 (MYB [2]): 1 to 10 µM
IC50 (SMN2): 1 to 10 µM
IC50 (Target C [3]): 1 to 10 µM
IC50 (HTT [4]): 1 to 10 µM
IC50 (MYB [5]; [7]): > 10 µM
AC50 (MYB [5]; [8]): > 10 µM
IC50 (MYB [5]; [9]): > 10 µM
IC50 (HTT [6]; [10]): > 10 µM
AC50 (HTT [6]; [8]): > 10 µM
IC50 (HTT [6]; [11]): > 10 µM

CC1(C)CC(Nc2ccc(-c3ccc(-c4cn[nH]c4)c4cn[nH]c34)nn2)CC(C)(C)N1 [Compound 275]
IC50 (Target C [1]): 1 to 10 µM
IC50 (MYB [2]): 0.1 to 1 µM
IC50 (SMN2): 0.1 to 1 µM
IC50 (Target C [3]): < 0.1 µM
IC50 (HTT [4]): 0.1 to 1 µM
IC50 (MYB [5]; [7]): 0.1 to 1 µM
AC50 (MYB [5]; [8]): 1 to 10 µM
IC50 (MYB [5]; [9]): 0.1 to 1 µM
IC50 (HTT [6]; [10]): 0.1 to 1 µM
AC50 (HTT [6]; [8]): 1 to 10 µM
IC50 (HTT [6]; [11]): 0.1 to 1 µM

c1nc2c(-c3cn[nH]c3)ccc(-c3ccc(N4CCC45CCCNC5)nn3)c2s1 (stereo not shown) [Compound 276]
IC50 (Target C [1]): 1 to 10 µM
IC50 (MYB [2]): 1 to 10 µM
IC50 (SMN2): 1 to 10 µM
IC50 (Target C [3]): 1 to 10 µM
IC50 (HTT [4]): 1 to 10 µM
IC50 (MYB [5]; [7]): 1 to 10 µM
AC50 (MYB [5]; [8]): 1 to 10 µM
IC50 (MYB [5]; [9]): 1 to 10 µM
IC50 (HTT [6]; [10]): 1 to 10 µM
AC50 (HTT [6]; [8]): 1 to 10 µM
IC50 (HTT [6]; [11]): 1 to 10 µM
